Values joined by “and” are separate entries in the source; they are usually repeats but may differ in a detail not shown here. Equal entries are not always repeated.
Test system: HIV-1 (patient-derived RHIN segment)
Assay: phenotypic drug resistance test, resistance test vectors with patient-derived RHIN segment, luciferase, 293 cells
Type: cell-based
Description: Patient-derived segment(s) corresponding to the entire pol gene, encoding HIV protease, reverse transcriptase (including RNAse H), and integrase (hereinafter “POL”), the portion of pol encoding amino acids 1-305 of reverse transcriptase (hereinafter “PR-RT”), the portion of pol encoding amino acids 319-440 of reverse transcriptase (including RNAse H), and integrase (hereinafter “RHIN”), were amplified by the reverse transcription-polymerase chain reaction method (RT-PCR) using viral RNA isolated from viral particles present in the plasma or serum of HIV-infected individuals as described below. The portion of pol encoding protease, amino acids 1-531 of reverse transcriptase (including RNase H) (hereinafter “PRRT-RH”), or the portion of pol encoding protease, reverse transcriptase (including RNAse H) and integrase (hereinafter “PRRT-RHIN”), were assembled from amplicons described above by standard recombinant DNA techniques involving a KpnI restriction site at amino acid 400 or a Pin A1 site at amino acid 315.
Virus was pelleted by centrifugation at 20,400×g for 60 min from plasma (typically, 1 ml) prepared from blood samples collected in evacuated tubes containing either EDTA, acid-citrate dextrose, or heparin as an anticoagulant. Virus particles were disrupted by resuspending the pellets in 200 [1.1 of lysis buffer (4 M guanidine thiocyanate, 0.1 M Tris HCl (pH 8.0), 0.5% sodium lauryl sarcosine, 1% dithiothreitol). RNA was extracted from viral lysates by using oligo(dT) linked to magnetic beads (Dynal, Oslo, Norway). Reverse transcription was performed with Superscript III (Invitrogen) at 50 degrees for 1 hour using primer 1.
From the resultant cDNA either POL or RHIN sequences were amplified using the Advantage High Fidelity PCR kit (BD Biosciences; Clontech). POL amplification products are made using forward Primer 3 containing an Apal site and reverse Primer 4 containing a Xho 1 site. RHIN amplification products are made using forward Primer 2 containing a P1NA1 site and reverse Primer 4 containing a Xho 1 site.
A retroviral vector designed to measure antiretroviral drug susceptibility was constructed by using an infectious molecular clone of HIV-1. The vector, referred to herein as an indicator gene viral vector (IGVV), is replication defective and contains a luciferase expression cassette inserted within a deleted region of the envelope (env) gene. The IGVV is described in U.S. Pat. No. 5,837,464 (International Publication Number WO 97/27319) which is hereby incorporated by reference in its entirety. This retroviral vector was further modified to allow insertion of either the entire pol gene (POL) or the portion of poi encoding amino acids 319-440 of reverse transcriptase, the RNase H portion of reverse transcriptase, and integrase (REIN) by engineering an Xho l restriction enzyme recognition site into vif. Prior to doing this, an Xho 1 site in nef was deleted. Resistance Test vectors (RTVs) were constructed by incorporating amplified POL or RHIN into the IGVV by using Apal and Xhol or PinAI and Xho 1 restriction sites respectively. RTVs were prepared as libraries (pools) in order to capture and preserve the pol or RHIN sequence heterogeneity of the virus in the patient. POL amplification products were digested with Apal and Xhol, purified by agarose gel electrophoresis, and ligated to ApaI- and Xhol-digested IGVV DNA. RHIN amplification products were digested with PinAI and Xho/, purified by agarose gel electrophoresis, and ligated to PinAI and Xhol-digested IGVV DNA. Ligation reactions were used to transform competent Escherichia coli (Invitrogen, Carlsbad, Calif.). An aliquot of each transformation was plated onto agar, and colony counts were used to estimate the number of patient-derived segments represented in each RTV library. RTV libraries that comprised less than 50 members are not considered representative of the patient virus. […]

[1] = Sample 47 (K103K/N, V106V/A, Y181Y/C, G190G/A)
[2] = Sample 58 (K103N, Y181Y/C, G190G/A)
[3] = Sample 62 (K103H, P225P/H, T369T/I)
[4] = Sample 90 (K103K/N, Y181C, G190A)

## O=C1Nc2ccc(Cl)cc2[C@@](C#CC2CC2)(C(F)(F)F)O1 [EFV, efavirenz]
Sample 31 (K103N)
  fold change in IC50, RHIN: 1.1 fold
Sample 33 (K103S)
  fold change in IC50, RHIN: 0.7 fold
Sample 34
  fold change in IC50, RHIN: 1.0 fold
Sample 35 (K103H)
  fold change in IC50, RHIN: 0.7 fold
Sample 36 (K103K/W)
  fold change in IC50, RHIN: 1.0 fold
Sample 38 (K103N)
  fold change in IC50, RHIN: 0.5 fold
Sample 39 (T369A)
  fold change in IC50, RHIN: 0.9 fold
Sample 42 (G190G/A)
  fold change in IC50, RHIN: 0.4 fold
Sample 45
  fold change in IC50, RHIN: 1.0 fold
[1]
  fold change in IC50, RHIN: 0.5 fold
Sample 50 (K103N)
  fold change in IC50, RHIN: 0.5 fold
Sample 51
  fold change in IC50, RHIN: 0.4 fold
Sample 52
  fold change in IC50, RHIN: 1.0 fold
[2]
  fold change in IC50, RHIN: 0.9 fold
[3]
  fold change in IC50, RHIN: 1.8 fold and 1.83 fold
Sample 64 (T369T/A)
  fold change in IC50, RHIN: 0.3 fold
Sample 69
  fold change in IC50, RHIN: 0.8 fold
Sample 72
  fold change in IC50, RHIN: 1.0 fold
Sample 80 (K103K/N, Y181Y/C)
  fold change in IC50, RHIN: 0.52 fold
Sample 81 (K103N, P225H)
  fold change in IC50, RHIN: 1.2 fold
Sample 84
  fold change in IC50, RHIN: 0.5 fold
Sample 85
  fold change in IC50, RHIN: 1.2 fold
Sample 87
  fold change in IC50, RHIN: 1.3 fold
Sample 89 (L1001, K103N)
  fold change in IC50, RHIN: 1.2 fold
[4]
  fold change in IC50, RHIN: 0.7 fold
Sample 92
  fold change in IC50, RHIN: 0.3 fold
Sample 93
  fold change in IC50, RHIN: 0.9 fold

## Cc1ccnc2c1NC(=O)c1cccnc1N2C1CC1 [NVP, nevirapine]
Pool of patient sample 62, RT codons mutated: N348 (0.5), T369 (0.5), T377, T403
  FC: 7.61
Sample 31 (K103N)
  fold change in IC50, RHIN: 2.1 fold
Sample 33 (K103S)
  fold change in IC50, RHIN: 1.0 fold
Sample 34
  fold change in IC50, RHIN: 0.7 fold
Sample 35 (K103H)
  fold change in IC50, RHIN: 1.2 fold
Sample 36 (K103K/W)
  fold change in IC50, RHIN: 1.0 fold
Sample 38 (K103N)
  fold change in IC50, RHIN: 0.5 fold
Sample 39 (T369A)
  fold change in IC50, RHIN: 2.6 fold
Sample 42 (G190G/A)
  fold change in IC50, RHIN: 0.6 fold
Sample 45
  fold change in IC50, RHIN: 1.3 fold
[1]
  fold change in IC50, RHIN: 1.0 fold
Sample 50 (K103N)
  fold change in IC50, RHIN: 0.6 fold
Sample 51
  fold change in IC50, RHIN: 0.6 fold
Sample 52
  fold change in IC50, RHIN: 0.9 fold
[2]
  fold change in IC50, RHIN: 1.7 fold
[3]
  fold change in IC50, RHIN: 7.6 fold and 7.61 fold
Sample 64 (T369T/A)
  fold change in IC50, RHIN: 0.4 fold
Sample 69
  fold change in IC50, RHIN: 0.9 fold
Sample 72
  fold change in IC50, RHIN: 1.6 fold
Sample 80 (K103K/N, Y181Y/C)
  fold change in IC50, RHIN: 0.72 fold
Sample 81 (K103N, P225H)
  fold change in IC50, RHIN: 1.4 fold
Sample 84
  fold change in IC50, RHIN: 0.7 fold
Sample 85
  fold change in IC50, RHIN: 2.1 fold
Sample 87
  fold change in IC50, RHIN: 1.9 fold
Sample 89 (L1001, K103N)
  fold change in IC50, RHIN: 2.7 fold
[4]
  fold change in IC50, RHIN: 1.2 fold
Sample 92
  fold change in IC50, RHIN: 0.5 fold
Sample 93
  fold change in IC50, RHIN: 1.1 fold
Clone c03a of patient sample 62, RT codons mutated: T377, T403
  FC: 1.64
Clone c03b of patient sample 62, RT codons mutated: A355, T369, T377, T403
  FC: 5.51
Clone c08 of patient sample 62, RT codons mutated: H315, T369, T377
  FC: 12.98
Clone c10 of patient sample 62, RT codons mutated: N348, T377, T403
  FC: 28.07
Clone c12 of patient sample 62, RT codons mutated: T369, T377, T403
  FC: 9.18
Clone c14 of patient sample 62, RT codons mutated: Y342, T377, T403, R448
  FC: 6.48
Clone c15 of patient sample 62, RT codons mutated: N348, Y354, T403, N418
  FC: 2.37
Clone c16 of patient sample 62, RT codons mutated: T377, T403, D511 (0.5)
  FC: 2.19
Clone c18 of patient sample 62, RT codons mutated: A371, T377, T403
  FC: 2.46
Clone c20 of patient sample 62, RT codons mutated: T377, T403
  FC: 3.97
Clone c21 of patient sample 62, RT codons mutated: T377, T403, K550
  FC: 5.16
Clone c23 of patient sample 62, RT codons mutated: T369, T377, T403
  FC: 10.11
Clone c24 of patient sample 62, RT codons mutated: T377, T403
  FC: 4.77
Clone c26 of patient sample 62, RT codons mutated: T369, T377, T403
  FC: 12.00
Clone c28 of patient sample 62, RT codons mutated: T377, I393, T403, R448
  FC: 0.54

## CC(C)Nc1cccnc1N1CCN(C(=O)c2cc3cc(NS(C)(=O)=O)ccc3[nH]2)CC1 [DLV, delavirdine]
Sample 31 (K103N)
  fold change in IC50, RHIN: 1.1 fold
Sample 33 (K103S)
  fold change in IC50, RHIN: 0.7 fold
Sample 34
  fold change in IC50, RHIN: 0.7 fold
Sample 35 (K103H)
  fold change in IC50, RHIN: 0.8 fold
Sample 36 (K103K/W)
  fold change in IC50, RHIN: 0.9 fold
Sample 38 (K103N)
  fold change in IC50, RHIN: 0.5 fold
Sample 39 (T369A)
  fold change in IC50, RHIN: 1.2 fold
Sample 42 (G190G/A)
  fold change in IC50, RHIN: 0.5 fold
Sample 45
  fold change in IC50, RHIN: 1.0 fold
[1]
  fold change in IC50, RHIN: 0.6 fold
Sample 50 (K103N)
  fold change in IC50, RHIN: 0.4 fold
Sample 51
  fold change in IC50, RHIN: 0.4 fold
Sample 52
  fold change in IC50, RHIN: 0.9 fold
[2]
  fold change in IC50, RHIN: 1.5 fold
[3]
  fold change in IC50, RHIN: 3.4 fold and 3.36 fold
Sample 64 (T369T/A)
  fold change in IC50, RHIN: 0.3 fold
Sample 69
  fold change in IC50, RHIN: 0.7 fold
Sample 72
  fold change in IC50, RHIN: 1.7 fold
Sample 80 (K103K/N, Y181Y/C)
  fold change in IC50, RHIN: 0.58 fold
Sample 81 (K103N, P225H)
  fold change in IC50, RHIN: 0.9 fold
Sample 84
  fold change in IC50, RHIN: 0.4 fold
Sample 85
  fold change in IC50, RHIN: 1.4 fold
Sample 87
  fold change in IC50, RHIN: 1.3 fold
Sample 89 (L1001, K103N)
  fold change in IC50, RHIN: 1.5 fold
[4]
  fold change in IC50, RHIN: 0.6 fold
Sample 92
  fold change in IC50, RHIN: 0.3 fold
Sample 93
  fold change in IC50, RHIN: 0.7 fold

From patent US8637252B2, “Methods and compositions for determining altered susceptibility of HIV-1 to anti-HIV drugs” (Monogram Biosciences, Inc., priority 2011, dated 2014)
